Source: US20040024024A1, “Aromatic sulfone hydroxamates and their use as protease inhibitors” (priority 2001, published 2004)

Experiments:
Assay type in all cases: biochemical
[1] = biological target: T1, Human recombinant MMP-9 (Homo sapiens, UniProt P14780); assay: In vitro MMP inhibition, Ki determination (fluorogenic substrate II); settings: value in parentheses
T1 construct: made in house; host or cells: MMP-9-transfected HT1080 cells (spent media)
Method: Several hydroxamates and salts thereof were analyzed in in vitro assays to determine their ability to inhibit the MMP cleavage of peptide substrates. Inhibition (Ki) and IC50 constants were calculated from the assayed hydroxamate-MMP interactions.
Human recombinant MMP-1, MMP-2, MMP-9, MMP-13, and MMP-14 were used in this assay. All enzymes were prepared in Assignee's laboratories following usual laboratory procedures. Protocols for the preparation and use of these enzymes are available in the scientific literature. See, e.g., Enzyme Nomenclature (Academic Press, San Diego, Calif., 1992) (and the citations therein). See also, Frije et al., J. Biol. Chem., 26(24), 16766-73 (1994).
The MMP-9 proenzyme was purified by gelatin Sepharose chromatography from spent media of MMP-9-transfected HT1080 cells provided by Dr. Howard Welgus of Washington University (St. Louis, Mo.).
All MMPs were activated using 4-aminophenylmercuric acetate (“APMA”, Sigma Chemical, St. Louis, Mo.) or trypsin. MMP-9 also was activated using human recombinant MMP-3 (purified in Assignee's laboratory following standard cloning and purification techniques).
Two fluorogenic, methoxycoumarin-containing polypeptide substrates were used in the MMP inhibition assays:
MCA-ArgProLeuGlyLeuDpaAlaArgGluArgNH2 (II)
Here, “Dpa” is 3-(2,4-dinitrophenyl)-L-2,3-diaminopropionyl group, and “MCA” is 7-methoxycoumarin-4-yl acetyl. Substrate (I) was purchased from Baychem (Redwood City, Calif.), and substrate II was prepared Assignee's laboratory. Substrate I was used in the IC50 determination assays, while substrate II was used in the Ki determination assays. In the absence of MMP inhibitory activity, either substrate is cleaved at the Gly-Leu peptide bond. This cleavage separates the highly fluorogenic peptide from the 2,4-dinitrophenyl quencher, thus resulting in increase of fluorescent intensity.
The stock solutions of the assayed hydroxamates (or salts thereof) were prepared in 1% dimethyl sulfoxide (DMSO). These stock solutions were diluted in Buffer A (100 mM Tris-HCl, 100 mM NaCl, 10 mM CaCl2, 0.05% polyoxyethylene 23 lauryl ether, pH 7.5) to obtain solutions with different hydroxamate concentrations, i.e., assay solutions with different concentrations of the assayed MMP inhibitory compound. The experiment controls contained the same amount of Buffer A/DMSO as the assayed sample, but contained no hydroxamate (or salt thereof).
The assays from which the Ki determinations were made were performed as follows. The assayed hydroxamate samples were incubated in separate wells of untreated white polystyrene plates (Nunc Nalgene International, Rochester, N.Y.), and analyzed on a Tecan SpectraFlour Plus plate reader. The excitation wavelength was 330 nm, and the emission wavelength—420 nm. All samples (assayed hydroxamates and controls) were incubated in separate plate wells at room temperature for 1 hr in the presence of 4 μM of MMP substrate (II). In the absence of MMP inhibitory activity, substrate II was cleaved at the Gly-Leu bond resulting in an increase of relative fluorescence. Inhibition was observed as a reduced rate of this increase in relative fluorescence. The various hydroxamates were analyzed using a single low enzyme concentration with a single substrate concentration fixed at or below the Km. This protocol is a modification of method by Knight et al., FEBS Lett., 296(3), 263-266 (1992). Apparent inhibitory constants were determined by non-linear regression of reaction velocity as a function of inhibitor and enzyme concentration using Morrison's equation, as described by Kuzmic, Anal. Biochem. 286, 45-50 (2000). Modifications were made in the non-linear regression method to allow a common control reaction rate and effective enzyme concentration to be shared between all dose-response relationships on a given assay plate. […]

[2] = biological target: T2, Human recombinant MMP-13 (Homo sapiens, UniProt P45452); assay: In vitro MMP inhibition, IC50 determination (fluorogenic substrate I); settings: value outside parentheses
T2 construct: made in house; host or cells: baculovirus / insect cells
Method in brief: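 Fluorescence at 415 nm (excitation 328 nm) reports Gly-Leu cleavage of 4 μM quenched methoxycoumarin peptide substrate I. Human recombinant MMP-13, activated by trypsin or APMA, was incubated at room temperature with varied inhibitor concentrations in pH 7.5 Tris/NaCl/CaCl2 buffer; IC50 derived from reduced fluorescence.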

[3] = biological target: T3, Human recombinant MMP-2 (Homo sapiens, UniProt P08253); assay: as above; settings: value outside parentheses
T3 construct: made in house; host or cells: MMP-2-transfected p2AHT2 cells
T3 sequence (P08253 110-660): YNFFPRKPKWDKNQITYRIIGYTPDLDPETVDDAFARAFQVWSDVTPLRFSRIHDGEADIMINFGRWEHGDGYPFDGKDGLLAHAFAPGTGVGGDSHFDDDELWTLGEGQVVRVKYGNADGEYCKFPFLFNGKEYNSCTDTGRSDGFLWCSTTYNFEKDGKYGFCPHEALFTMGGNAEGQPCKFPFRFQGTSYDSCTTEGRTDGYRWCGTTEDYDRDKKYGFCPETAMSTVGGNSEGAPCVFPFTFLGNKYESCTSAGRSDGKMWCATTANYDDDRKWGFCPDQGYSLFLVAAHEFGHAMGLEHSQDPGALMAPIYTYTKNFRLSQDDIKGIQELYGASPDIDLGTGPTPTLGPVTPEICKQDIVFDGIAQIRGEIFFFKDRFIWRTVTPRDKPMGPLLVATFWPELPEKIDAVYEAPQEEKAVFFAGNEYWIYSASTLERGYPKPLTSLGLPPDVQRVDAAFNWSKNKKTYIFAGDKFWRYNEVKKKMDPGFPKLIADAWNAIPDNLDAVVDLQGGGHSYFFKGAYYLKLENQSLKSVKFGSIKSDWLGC
Method in brief: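 APMA- or trypsin-activated recombinant MMP-2 was incubated at room temperature with serial inhibitor dilutions in Tris buffer pH 7.5 (100 mM NaCl, 10 mM CaCl2, 0.05% Brij), with DMSO from 1% stocks, and 4 μM substrate I. Cleavage was read by fluorescence at 328/415 nm; IC50 was taken from the loss of fluorescence versus inhibitor concentration.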

T1 sequence (P14780 107-707 limits assumed): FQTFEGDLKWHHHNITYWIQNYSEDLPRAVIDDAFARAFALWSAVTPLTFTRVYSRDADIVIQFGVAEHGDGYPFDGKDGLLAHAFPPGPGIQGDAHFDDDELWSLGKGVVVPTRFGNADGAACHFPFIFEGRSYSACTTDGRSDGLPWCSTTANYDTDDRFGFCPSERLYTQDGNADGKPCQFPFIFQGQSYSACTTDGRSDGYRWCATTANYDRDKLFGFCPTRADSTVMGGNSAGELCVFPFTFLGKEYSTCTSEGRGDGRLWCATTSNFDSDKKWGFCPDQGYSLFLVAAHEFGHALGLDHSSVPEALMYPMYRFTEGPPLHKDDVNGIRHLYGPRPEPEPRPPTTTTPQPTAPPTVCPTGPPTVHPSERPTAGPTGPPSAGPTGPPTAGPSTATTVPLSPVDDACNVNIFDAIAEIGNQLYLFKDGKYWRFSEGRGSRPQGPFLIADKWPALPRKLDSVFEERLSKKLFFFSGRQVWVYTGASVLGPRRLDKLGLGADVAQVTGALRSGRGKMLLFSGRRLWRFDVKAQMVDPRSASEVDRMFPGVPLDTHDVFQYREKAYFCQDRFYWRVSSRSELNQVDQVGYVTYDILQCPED

SMILES | Ki [1] | IC50 [2] | IC50 [3]
CCN1CCC(C(=O)NO)(S(=O)(=O)c2ccc(OCCCSc3nc4ccccc4s3)cc2)CC1 [Example 591] | 4.22 nM | 0.3 nM | 3.5 nM
O=C(NO)C1(S(=O)(=O)c2ccc(OCCCc3cccc(-c4cccs4)c3)cc2)CCOCC1 [Example 595] | 2060 nM | 1 nM | 482 nM
O=C(Cc1csc2ccccc12)NCCOc1ccc(S(=O)(=O)C2(C(=O)NO)CCOCC2)cc1 [Example 596] | 308 nM | 2.7 nM | 10.3 nM
O=C(NCCOc1ccc(S(=O)(=O)C2(C(=O)NO)CCOCC2)cc1)c1cc2ccccc2[nH]1 [Example 599] | 11.3 nM | 0.1 nM | < 0.1 nM
O=C(NO)C1(S(=O)(=O)c2ccc(OCCCc3cc(-c4ccc(OC(F)(F)F)cc4)cs3)cc2)CCOCC1 [Example 608] | 1370 nM | 6.6 nM | 342 nM
N#Cc1ccc(-c2cccc(CCCOc3ccc(S(=O)(=O)C4(C(=O)NO)CCOCC4)cc3)c2)cc1 [Example 624] | 443 nM | 0.3 nM | 214 nM
O=C(NO)C1(S(=O)(=O)c2ccc(OCCCc3cccc(-c4ccc(C(F)(F)F)cc4)c3)cc2)CCOCC1 [Example 625] | 4600 nM | 33.6 nM | 3500 nM
O=C(NO)C1(S(=O)(=O)c2ccc(OCCCc3cccc(-c4ccc([N+](=O)[O-])cc4)c3)cc2)CCOCC1 [Example 626] | 1100 nM | 0.4 nM | 143 nM
O=C(NO)C1(S(=O)(=O)c2ccc(OCCCc3cccc(-c4ccc5c(c4)OCCO5)c3)cc2)CCOCC1 [Example 627] | 3150 nM | 14.9 nM | 2070 nM
O=C(NO)C1(S(=O)(=O)c2ccc(OCCCc3cccc(-c4ccc5c(c4)OCO5)c3)cc2)CCOCC1 [Example 628] | 1930 nM | 3.3 nM | 1700 nM
O=C(NO)C1(S(=O)(=O)c2ccc(OCCCc3cccc(-c4ccc5ccccc5c4)c3)cc2)CCOCC1 [Example 629] | 1300 nM | 78.6 nM | 537 nM
O=C(NO)C1(S(=O)(=O)c2ccc(OCCCc3cccc(-c4ccc(F)cc4F)c3)cc2)CCOCC1 [Example 630] | 2280 nM | 0.4 nM | 1170 nM

Second part, the compound after the results:

Ki [1] | IC50 [2] | IC50 [3] | SMILES
5810 nM | 118 nM | 2140 nM | O=C(NO)C1(S(=O)(=O)c2ccc(OCCCc3cccc(-c4csc5ccccc45)c3)cc2)CCOCC1 [Example 631]
716 nM | 1.6 nM | 91 nM | O=C(NO)C1(S(=O)(=O)c2ccc(OCCCc3cccc(-c4ccsc4)c3)cc2)CCOCC1 [Example 632]
6780 nM | 117 nM | 2830 nM | O=C(NO)C1(S(=O)(=O)c2ccc(OCCCc3cccc(-c4cc5ccccc5s4)c3)cc2)CCOCC1 [Example 633]
1300 nM | 16.3 nM | 486 nM | O=C(NO)C1(S(=O)(=O)c2ccc(OCCCc3cccc(-c4coc5ccccc45)c3)cc2)CCOCC1 [Example 634]
4830 nM | 20 nM | 2310 nM | C=Cc1ccc(-c2cccc(CCCOc3ccc(S(=O)(=O)C4(C(=O)NO)CCOCC4)cc3)c2)cc1 [Example 635]
763 nM | 3.2 nM | 195 nM | O=C(NO)C1(S(=O)(=O)c2ccc(OCCCc3cccc(-c4ccccc4O)c3)cc2)CCOCC1 [Example 636]
881 nM | 1.8 nM | 138 nM | O=C(NO)C1(S(=O)(=O)c2ccc(OCCCc3cccc(-c4ccoc4)c3)cc2)CCOCC1 [Example 637]
8770 nM | 400 nM | 4400 nM | O=C(NO)C1(S(=O)(=O)c2ccc(OCCCc3cccc(-c4cccc5ccccc45)c3)cc2)CCOCC1 [Example 638]
688 nM | 4.3 nM | 247 nM | Cc1ccc(-c2cccc(CCCOc3ccc(S(=O)(=O)C4(C(=O)NO)CCOCC4)cc3)c2)s1 [Example 639]
